experiment: Inhibition of Phosphodiesterase 5 from porcine platelets

| IC50 [nM] | SMILES |
| --- | --- |
| 4.8 | COc1ccc(CNc2nnc(Cl)c3ccc(C#N)cc23)cc1Cl |
| 49 | CCOc1ccc(CNc2nnc(Cl)c3ccc(C#N)cc23)cc1Cl [1-Chloro-4-(3-chloro-4-ethoxy-benzylamino)-phthalazine-6-carbonitrile] |
| 140 | COc1ccc(CNc2nnc(Cl)c3ccc(C#N)cc23)cc1 [1-Chloro-4-(4-methoxy-benzylamino)-phthalazine-6-carbonitrile] |
| 140 | COc1ccc(CNc2nnc(Cl)c3cc(C#N)ccc23)cc1Cl [4-Chloro-1-(3-chloro-4-methoxy-benzylamino)-phthalazine-6-carbonitrile] |
| 810 | COc1ccc(CNc2nnc(Cl)c3cc(Cl)ccc23)cc1Cl [(3-Chloro-4-methoxy-benzyl)-(4,6-dichloro-phthalazin-1-yl)-amine] |
| 3.5 | COc1ccc(CNc2nnc(Cl)c3ccc([N+](=O)[O-])cc23)cc1Cl [(3-Chloro-4-methoxy-benzyl)-(4-chloro-7-nitro-phthalazin-1-yl)-amine] |
| 5.3 | COc1ccc(CNc2nnc(Cl)c3ccc(C(F)(F)F)cc23)cc1Cl [(3-Chloro-4-methoxy-benzyl)-(4-chloro-7-trifluoromethyl-phthalazin-1-yl)-amine] |
| 63 | O=[N+]([O-])c1ccc2c(Cl)nnc(NCc3ccc4c(c3)OCO4)c2c1 [Benzo[1,3]dioxol-5-ylmethyl-(4-chloro-7-nitro-phthalazin-1-yl)-amine] |
